Assay results published in ChEMBL document CHEMBL4229518, “New β-lactam - Tetramic acid hybrids show promising antibacterial activities” (Bioorg Med Chem Lett, 2018).
Values after ≈ are worked out from the molar mass of the structure shown.

What was measured:
Format in all cases: functional
Acinetobacter baumannii = experiment: Antimicrobial activity against Acinetobacter baumannii ATCC 19606 after 18 to 20 hrs by microbroth dilution method; settings: ATCC 19606 = CIP 70.34 = JCM 6841
Pseudomonas aeruginosa = experiment: Antimicrobial activity against Pseudomonas aeruginosa PAO1 after 18 to 20 hrs by microbroth dilution method
Streptococcus pyogenes = experiment: Antimicrobial activity against Streptococcus pyogenes ATCC 700294 after 18 to 20 hrs by microbroth dilution method; settings: M1 GAS
Proteus mirabilis = experiment: Antimicrobial activity against Proteus mirabilis ATCC 25933 after 18 to 20 hrs by microbroth dilution method
Bacillus cereus = experiment: Antimicrobial activity against Bacillus cereus ATCC 14579 after 18 to 20 hrs by microbroth dilution method
Enterococcus faecalis = experiment: Antimicrobial activity against Enterococcus faecalis ATCC 33186 after 18 to 20 hrs by microbroth dilution method
Bacillus subtilis = experiment: Antimicrobial activity against Bacillus subtilis ATCC 23857 after 18 to 20 hrs by microbroth dilution method
Staphylococcus aureus [1] = experiment: Antimicrobial activity against methicillin-susceptible Staphylococcus aureus ATCC 29213 after 18 to 20 hrs by microbroth dilution method
[2] = tested on: Stenotrophomonas maltophilia; experiment: Antimicrobial activity against Stenotrophomonas maltophilia ATCC 700475 after 18 to 20 hrs by microbroth dilution method
Enterobacter cloacae = experiment: Antimicrobial activity against Enterobacter cloacae ATCC 13047 after 18 to 20 hrs by microbroth dilution method; settings: subsp. cloacae ATCC 13047
Escherichia coli [3] = experiment: Antimicrobial activity against tolC deficient Escherichia coli JW5503-1 after 18 to 20 hrs by microbroth dilution method
Klebsiella pneumoniae [4] = experiment: Antimicrobial activity against Klebsiella pneumoniae ATCC 33495 after 18 to 20 hrs by microbroth dilution method
Streptococcus pneumoniae = experiment: Antimicrobial activity against Streptococcus pneumoniae R6 after 18 to 20 hrs by microbroth dilution method
Bacillus anthracis = experiment: Antimicrobial activity against Bacillus anthracis Sterne 34F2 after 18 to 20 hrs by microbroth dilution method
Escherichia coli [5] = experiment: Antimicrobial activity against Escherichia coli BW25113 after 18 to 20 hrs by microbroth dilution method
Staphylococcus aureus [6] = experiment: Antimicrobial activity against methicillin-susceptible Staphylococcus aureus NRS70 after 18 to 20 hrs by microbroth dilution method
Escherichia coli [7] = experiment: Antimicrobial activity against Escherichia coli isolate SJ 4 after 18 to 20 hrs by microbroth dilution method
Klebsiella pneumoniae [8] = experiment: Antimicrobial activity against Klebsiella pneumoniae isolate SJ 1 after 18 to 20 hrs by microbroth dilution method
Escherichia coli [9] = experiment: Antimicrobial activity against Escherichia coli isolate SJ 6 after 18 to 20 hrs by microbroth dilution method
Klebsiella pneumoniae [10] = experiment: Antimicrobial activity against Klebsiella pneumoniae isolate SJ 3 after 18 to 20 hrs by microbroth dilution method
Escherichia coli [11] = experiment: Antimicrobial activity against Escherichia coli isolate SJ 5 after 18 to 20 hrs by microbroth dilution method
Escherichia coli [12] = experiment: Antimicrobial activity against Escherichia coli isolate SJ 1 after 18 to 20 hrs by microbroth dilution method
Klebsiella pneumoniae [13] = experiment: Antimicrobial activity against Klebsiella pneumoniae isolate SJ 2 after 18 to 20 hrs by microbroth dilution method
Escherichia coli [14] = experiment: Antimicrobial activity against Escherichia coli isolate SJ 3 after 18 to 20 hrs by microbroth dilution method
Escherichia coli [15] = experiment: Antimicrobial activity against Escherichia coli ATCC 35218 expressing TEM-1 beta lactamases after 18 to 20 hrs by microbroth dilution method
Klebsiella pneumoniae [16] = experiment: Antimicrobial activity against Klebsiella pneumoniae isolate SJ 4 after 18 to 20 hrs by microbroth dilution method
Klebsiella pneumoniae [17] = experiment: Antimicrobial activity against Klebsiella pneumoniae isolate SJ 5 after 18 to 20 hrs by microbroth dilution method
Escherichia coli [18] = experiment: Antimicrobial activity against Escherichia coli isolate SJ 2 after 18 to 20 hrs by microbroth dilution method
Escherichia coli [19] = experiment: Antimicrobial activity against Escherichia coli ATCC 25922 after 18 to 20 hrs by microbroth dilution method

`CC1=C(C(=O)O)N2C(=O)[C@@H](NC(=O)[C@H](N)c3ccccc3)[C@H]2SC1` [CEPHALEXIN ANHYDROUS] showed an MIC (Acinetobacter baumannii) greater than 200 µg/mL, an MIC (Pseudomonas aeruginosa) greater than 200 µg/mL and an MIC (Streptococcus pyogenes) of 3.13 µg/mL (≈ 9.01 µM). For the same molecule, the MIC (Proteus mirabilis) was 50 µg/mL (≈ 144 µM), the MIC (Bacillus cereus) was greater than 200 µg/mL and the MIC (Enterococcus faecalis) was 200 µg/mL (≈ 576 µM). It also gave an MIC (Bacillus subtilis) of 0.78 µg/mL (≈ 2.25 µM), an MIC (Staphylococcus aureus [1]) of 3.13 µg/mL (≈ 9.01 µM) and an MIC [2] greater than 200 µg/mL. It also gave an MIC (Enterobacter cloacae) greater than 200 µg/mL, an MIC (Escherichia coli [3]) of 100 µg/mL (≈ 288 µM) and an MIC (Klebsiella pneumoniae [4]) of 50 µg/mL (≈ 144 µM). For the same molecule, the MIC (Streptococcus pneumoniae) was 6.25 µg/mL (≈ 18 µM), the MIC (Bacillus anthracis) was 3.13 µg/mL (≈ 9.01 µM) and the MIC (Escherichia coli [5]) was 50 µg/mL (≈ 144 µM). For the same molecule, the MIC (Staphylococcus aureus [6]) was greater than 200 µg/mL.
`CC(C)CC1NC(=O)C(C(=O)NCCC(=O)N[C@@H](C(=O)N[C@@H]2C(=O)N3[C@@H]2SC(C)(C)[C@@H]3C(=O)O)c2ccccc2)=C1O` (some centres undefined) gave an MIC (Acinetobacter baumannii) of 200 µg/mL (≈ 332 µM), an MIC (Pseudomonas aeruginosa) of 25 µg/mL (≈ 41.6 µM) and an MIC (Streptococcus pyogenes) of 0.78 µg/mL (≈ 1.3 µM). It also gave an MIC (Proteus mirabilis) of 6.25 µg/mL (≈ 10.4 µM), an MIC (Bacillus cereus) of 25 µg/mL (≈ 41.6 µM) and an MIC (Enterococcus faecalis) of 50 µg/mL (≈ 83.1 µM). For the same molecule, the MIC (Bacillus subtilis) was 3.13 µg/mL (≈ 5.2 µM), the MIC (Staphylococcus aureus [1]) was 0.78 µg/mL (≈ 1.3 µM) and the MIC [2] was 50 µg/mL (≈ 83.1 µM). The MIC (Enterobacter cloacae) was greater than 200 µg/mL, the MIC (Escherichia coli [3]) was 25 µg/mL (≈ 41.6 µM) and the MIC (Klebsiella pneumoniae [4]) was 200 µg/mL (≈ 332 µM). The MIC (Streptococcus pneumoniae) was less than 0.2 µg/mL, the MIC (Bacillus anthracis) was 3.13 µg/mL (≈ 5.2 µM) and the MIC (Escherichia coli [5]) was 50 µg/mL (≈ 83.1 µM). The MIC (Staphylococcus aureus [6]) was 50 µg/mL (≈ 83.1 µM).
For `CC1=C(C(=O)O)N2C(=O)[C@@H](NC(=O)[C@H](NC(=O)C3=C(O)C(CC(C)C)NC3=O)c3ccccc3)[C@H]2SC1` (some centres undefined), the MIC (Acinetobacter baumannii) was 100 µg/mL (≈ 189 µM), the MIC (Pseudomonas aeruginosa) was greater than 200 µg/mL and the MIC (Streptococcus pyogenes) was 3.13 µg/mL (≈ 5.92 µM). For the same molecule, the MIC (Proteus mirabilis) was 100 µg/mL (≈ 189 µM), the MIC (Bacillus cereus) was greater than 200 µg/mL and the MIC (Enterococcus faecalis) was 200 µg/mL (≈ 378 µM). For the same molecule, the MIC (Bacillus subtilis) was 25 µg/mL (≈ 47.3 µM), the MIC (Staphylococcus aureus [1]) was 12.5 µg/mL (≈ 23.6 µM) and the MIC [2] was 100 µg/mL (≈ 189 µM). The MIC (Enterobacter cloacae) was greater than 200 µg/mL, the MIC (Escherichia coli [3]) was 100 µg/mL (≈ 189 µM) and the MIC (Klebsiella pneumoniae [4]) was greater than 200 µg/mL. It also gave an MIC (Streptococcus pneumoniae) of 100 µg/mL (≈ 189 µM), an MIC (Bacillus anthracis) of 200 µg/mL (≈ 378 µM) and an MIC (Escherichia coli [5]) greater than 200 µg/mL. It also gave an MIC (Staphylococcus aureus [6]) of 100 µg/mL (≈ 189 µM).
`CC1=C(C(=O)O)N2C(=O)[C@@H](NC(=O)[C@H](NC(=O)CCNC(=O)C3=C(O)C(CC(C)C)NC3=O)c3ccccc3)[C@H]2SC1` (some centres undefined) was tested, and the MIC (Acinetobacter baumannii) was greater than 200 µg/mL, the MIC (Pseudomonas aeruginosa) was greater than 200 µg/mL and the MIC (Streptococcus pyogenes) was 12.5 µg/mL (≈ 20.8 µM). The MIC (Proteus mirabilis) was 50 µg/mL (≈ 83.4 µM), the MIC (Bacillus cereus) was greater than 200 µg/mL and the MIC (Enterococcus faecalis) was greater than 200 µg/mL. The MIC (Bacillus subtilis) was 6.25 µg/mL (≈ 10.4 µM), the MIC (Staphylococcus aureus [1]) was 3.13 µg/mL (≈ 5.22 µM) and the MIC [2] was greater than 200 µg/mL. The MIC (Enterobacter cloacae) was greater than 200 µg/mL, the MIC (Escherichia coli [3]) was 200 µg/mL (≈ 334 µM) and the MIC (Klebsiella pneumoniae [4]) was 200 µg/mL (≈ 334 µM). For the same molecule, the MIC (Streptococcus pneumoniae) was 12.5 µg/mL (≈ 20.8 µM), the MIC (Bacillus anthracis) was 100 µg/mL (≈ 167 µM) and the MIC (Escherichia coli [5]) was 200 µg/mL (≈ 334 µM). It also gave an MIC (Staphylococcus aureus [6]) of 50 µg/mL (≈ 83.4 µM).
`CC1=C(C(=O)O)N2C(=O)[C@@H](NC(=O)CCNC(=O)C3=C(O)C(CC(C)C)NC3=O)[C@H]2SC1` (some centres undefined) showed an MIC (Acinetobacter baumannii) greater than 200 µg/mL, an MIC (Pseudomonas aeruginosa) greater than 200 µg/mL and an MIC (Streptococcus pyogenes) greater than 200 µg/mL. It also gave an MIC (Proteus mirabilis) greater than 200 µg/mL, an MIC (Bacillus cereus) greater than 200 µg/mL and an MIC (Enterococcus faecalis) greater than 200 µg/mL. For the same molecule, the MIC (Bacillus subtilis) was 100 µg/mL (≈ 214 µM), the MIC (Staphylococcus aureus [1]) was 50 µg/mL (≈ 107 µM) and the MIC [2] was greater than 200 µg/mL. The MIC (Enterobacter cloacae) was greater than 200 µg/mL, the MIC (Escherichia coli [3]) was greater than 200 µg/mL and the MIC (Klebsiella pneumoniae [4]) was greater than 200 µg/mL. The MIC (Streptococcus pneumoniae) was 200 µg/mL (≈ 429 µM), the MIC (Bacillus anthracis) was 200 µg/mL (≈ 429 µM) and the MIC (Escherichia coli [5]) was greater than 200 µg/mL. For the same molecule, the MIC (Staphylococcus aureus [6]) was 100 µg/mL (≈ 214 µM).
`CO[C@@]1(NC(=O)CSCC#N)C(=O)N2C(C(=O)O)=C(CSc3nnnn3C)CS[C@@H]21` [CEFMETAZOLE] was tested, and the MIC (Acinetobacter baumannii) was 25 µg/mL (≈ 53 µM), the MIC (Escherichia coli [7]) was 0.78 µg/mL (≈ 1.65 µM) and the MIC (Klebsiella pneumoniae [8]) was 0.39 µg/mL (≈ 0.827 µM). It also gave an MIC (Pseudomonas aeruginosa) greater than 200 µg/mL, an MIC (Escherichia coli [9]) of 12.5 µg/mL (≈ 26.5 µM) and an MIC (Proteus mirabilis) of 0.39 µg/mL (≈ 0.827 µM). It also gave an MIC (Klebsiella pneumoniae [10]) of 0.39 µg/mL (≈ 0.827 µM), an MIC (Escherichia coli [3]) of 1.56 µg/mL (≈ 3.31 µM) and an MIC (Klebsiella pneumoniae [4]) of 3.13 µg/mL (≈ 6.64 µM). It also gave an MIC (Escherichia coli [11]) of 6.25 µg/mL (≈ 13.3 µM), an MIC (Escherichia coli [12]) of 0.39 µg/mL (≈ 0.827 µM) and an MIC (Klebsiella pneumoniae [13]) of 0.39 µg/mL (≈ 0.827 µM). The MIC (Escherichia coli [14]) was 0.78 µg/mL (≈ 1.65 µM), the MIC (Escherichia coli [5]) was 0.39 µg/mL (≈ 0.827 µM) and the MIC (Escherichia coli [15]) was 0.39 µg/mL (≈ 0.827 µM). The MIC (Klebsiella pneumoniae [16]) was 0.78 µg/mL (≈ 1.65 µM), the MIC (Klebsiella pneumoniae [17]) was 1.56 µg/mL (≈ 3.31 µM) and the MIC (Escherichia coli [18]) was 0.78 µg/mL (≈ 1.65 µM). For the same molecule, the MIC (Escherichia coli [19]) was 0.78 µg/mL (≈ 1.65 µM).
